From patent publication US8536196B2, “Substituted 1,3-dioxanes useful as PPAR modulators” (Evolva SA, priority 2007, dated 2013)

Assays:
Type in all cases: cell-based
Gal4-PPARgammaLBD = biological target: T1, Gal4-PPARgammaLBD (Homo sapiens, UniProt P37231); assay: PPARgamma transactivation assay (Gal4-PPARgammaLBD, UASx4-TK-luc reporter); details: 10 μM
T1 construct: expressed in transfected cells; host or cells: mouse embryonic fibroblasts (MEFs) or ME3 cells
T1 sequence (P37231 204-505): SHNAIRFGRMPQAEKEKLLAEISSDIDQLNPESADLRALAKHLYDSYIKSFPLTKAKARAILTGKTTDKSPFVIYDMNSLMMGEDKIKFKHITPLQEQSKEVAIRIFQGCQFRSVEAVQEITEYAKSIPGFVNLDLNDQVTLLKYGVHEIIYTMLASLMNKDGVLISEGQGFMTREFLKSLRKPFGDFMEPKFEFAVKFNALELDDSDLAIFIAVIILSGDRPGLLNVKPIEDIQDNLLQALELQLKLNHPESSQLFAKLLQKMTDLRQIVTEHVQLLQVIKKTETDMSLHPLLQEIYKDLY
Description: This is an example of a transactivation assay for determining PPAR gamma modulating activity.
The UASx-4-TK-luc reporter construct (where UAS refers to “upstream activator sequence”) contains four Gal4-responsive elements. The plasmid Gal4-PPARgammaLBD encodes a Gal4-DBD-PPARgamma-LBD fusion protein (i.e. the DNA-binding domain, DBD, of Gal4 fused to the ligand-binding domain, LBD, of PPARgamma) capable of transactivating the UASx-4-TK-luc reporter plasmid by binding to the UAS. The CMV-beta-galactosidase plasmid (where CMV is cytomegalovirus) is used for normalization of experimental values.
The cells were replated, typically in 24 well plates, so that at the time of transfection the cells are 50-70% confluent.
Briefly, per well in a 24 well plate, UASx4TKIuc (0.2 μg) Gal4-PPARgammaLBD (or pM-hPPARgamma-LBD; 0.1 μg) and CMV-beta-galactosidase (0.05 μg) in 30 μL DMEM (free of serum and antibiotics) is mixed with 30 μL DMEM (free of serum and antibiotics) containing 1 μL metafectenein. The mixture is incubated at room temperature for 20 min to allow formation of nucleic acid-lipid complexes and then approximately 60 μL is added to each well containing the 50-60% confluent cells. […] Cells were harvested after 12-24 hours and luciferase and beta-galactosidase activities were measured according to standard protocols.
“−” means that testing was not performed.

mPPARalphaLBD = biological target: T2, mPPARalphaLBD (Mus musculus, UniProt P23204); assay: PPARalpha transactivation assay
T2 construct: expressed in transfected cells
T2 sequence (P23204 239-466 limits assumed): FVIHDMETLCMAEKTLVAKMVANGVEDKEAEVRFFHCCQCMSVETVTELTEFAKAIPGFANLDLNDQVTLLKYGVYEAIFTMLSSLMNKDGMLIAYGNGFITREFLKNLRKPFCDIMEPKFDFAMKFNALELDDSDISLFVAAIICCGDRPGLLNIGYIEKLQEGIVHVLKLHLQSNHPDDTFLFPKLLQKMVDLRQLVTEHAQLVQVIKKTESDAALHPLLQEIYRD
Method: This example describes a transactivation assay for determining PPARalpha modulating activity.
DPD and other ligands are tested for their ability to transactivate PPARalpha essentially as described in Example 22.

[1] = biological target: T3, full length human PPARgamma (hPPARg2) (Homo sapiens, UniProt P37231); assay: Transactivation assay with full length human PPARgamma
T3 construct: expressed in transfected cells
T3 sequence (P37231 1-505): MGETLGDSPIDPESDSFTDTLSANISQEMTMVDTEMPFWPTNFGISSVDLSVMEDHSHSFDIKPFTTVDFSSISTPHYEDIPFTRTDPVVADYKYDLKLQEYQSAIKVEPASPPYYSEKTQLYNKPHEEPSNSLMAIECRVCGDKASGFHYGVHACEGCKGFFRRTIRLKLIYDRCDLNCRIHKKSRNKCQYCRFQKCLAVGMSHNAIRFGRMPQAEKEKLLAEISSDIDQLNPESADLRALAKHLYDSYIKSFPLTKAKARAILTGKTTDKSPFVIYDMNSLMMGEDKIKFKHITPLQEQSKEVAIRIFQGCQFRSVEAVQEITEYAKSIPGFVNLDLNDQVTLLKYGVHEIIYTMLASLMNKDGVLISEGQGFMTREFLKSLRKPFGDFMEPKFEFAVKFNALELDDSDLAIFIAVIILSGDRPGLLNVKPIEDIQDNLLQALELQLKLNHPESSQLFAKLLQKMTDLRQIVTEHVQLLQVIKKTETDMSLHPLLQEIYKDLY
Method: When this assay was carried out essentially as described above but with the full length human PPARgamma rather than with the PPARgamma ligand binding domain, activation of full-length hPPARg2 was seen to 64% of the Avandia positive control (FIG. 3).

mPPARdeltaLBD = biological target: T4, mPPARdeltaLBD (Mus musculus, UniProt P35396); assay: PPARdelta transactivation assay
T4 construct: expressed in transfected cells
T4 sequence (P35396 210-438 limits assumed): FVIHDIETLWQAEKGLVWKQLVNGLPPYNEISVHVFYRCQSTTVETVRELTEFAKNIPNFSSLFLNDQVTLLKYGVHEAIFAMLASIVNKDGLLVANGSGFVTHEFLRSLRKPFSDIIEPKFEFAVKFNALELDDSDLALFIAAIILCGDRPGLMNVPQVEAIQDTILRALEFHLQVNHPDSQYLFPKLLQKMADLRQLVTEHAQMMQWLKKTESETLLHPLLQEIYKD
Method: This example describes a transactivation assay for determining PPARdelta modulating activity.
DPD and other ligands are tested for their ability to transactivate PPARdelta essentially as described in Example 22.

3T3-L1 cells = assay: Inhibition of adipocyte differentiation assay (Oil Red O staining)
Method: To test compounds as inhibitors of adipocyte differentiation, 3T3-L1 cells are grown as above until two-day postconfluence (designated day 0), after which the cells are induced to differentiate with DMEM containing 10% fetal bovine serum (FBS), 1 μM dexamethasone (Sigma), 0.5 mM methylisobutylxanthine (Sigma), 1 μg/ml insulin (Roche Molecular Biochemicals) and the test-compound. Cells induced to differentiate in presence of solvent of the test-compounds are used as positive control. After 48 h, the cells are re-fed with DMEM containing 10% FBS supplemented with the test compound or the positive control. From day 4, cells are grown in DMEM with 10% FBS and are changed every second day until day 8. At day 8, cells are stained with Oil Red O as described below.
Cells cultured as described above are used for Oil Red staining. Dishes are washed in PBS and cells were fixed in 3.7% paraformaldehyde for 1 h and stained with oil red O as described in (Hansen et al 1999). Oil red O solution stock solution is prepared by dissolving 0.5 g of Oil Red O (Sigma) in 100 mL of isopropanol. Oil re 0 working solution is prepared by diluting a stock solution with water (6:4) followed by filtration.

human pre-adipocytes = assay: Adipocyte differentiation assay using human pre-adipocytes

- PPAR transactivation higher than with DMSO alone (Gal4-PPARgammaLBD): about 10 fold
- increase in PPARalpha transactivation (mPPARalphaLBD): no transactivation
- activation of full-length hPPARg2, % of the Avandia positive control [1]: 64%
- increase in PPARdelta transactivation (mPPARdeltaLBD): no or little increase in transactivation
SMILES: O=C(O)CC/C=C\CC1COC(c2ccccc2Cl)OC1c1ccccc1O (racemic) [SN1, (Z)-6-(-2-(2-chlorophenyl)-4-(2-hydroxyphenyl)-1,3-dioxan-5-yl)hex-4-enoic acid]
- inhibition of adipocyte differentiation (3T3-L1 cells): no significant effect
- red staining (Oil Red O), human pre-adipocytes (human pre-adipocytes): very little red staining, similar to DMSO
